Laboratory results: patent US20030216569A1, “Method of making HIV protease inhibitors” (priority 1993, published 2003)
Values joined by “and” are separate entries in the source; they are usually repeats but may differ in a detail not shown here. Equal values may be shown once. Read-outs that look alike come from different tables or passages of the source.

Legend:
HIV-1 protease = HIV-1 protease (Human immunodeficiency virus type 1 group M subtype B, UniProt P04585); assay: Fluorescence HIV-1 Protease Inhibitor Assay (Pandex); format: biochemical; parameters: made in house; host or cells: E. coli K12 L507/pHP10D (NRRL B-18560)
[1] = tested on: HIV-1 isolates IIIB and/or RF in CEM cells; assay: SRI primary anti-HIV screen, MTT assay of inhibition of HIV-induced cell killing in CEM cells; format: cell-based; conditions: CEM cells
Method: (§1) A. Principle of MTT Assay:
This assay involves the conversion of the tetrazolium dye MTT to a colored formazan product by mitochondrial enzymes in metabolically active cells. This assay system is used at SRI to screen over 30,000 compounds per year. Briefly, the assay involves the infection of CEM or MT2 cells in round bottom 96-well plates. The compound of interest is added just prior to infection. Following 6 days of incubation at 37° C. the plates are stained with MTT. The results of the assay are quantitated spectrophotometrically on a Molecular Devices Vmax plate reader. The data are analyzed by linear regression utilizing an in-house software program to calculate antiviral activity (IC25, IC50, IC95) and toxicity (TC25, TC50, TC95) as well as other values.
(§2) Primary antiviral assays are routinely performed in CEM or MT-2 cells.
(§3) B. Standard Screening Assays in CEM and MT-2 Cells
(§4) 1. Compound dilution and delivery to the plates
(§5) Drugs are solubilized in the appropriate vehicle such as distilled water or DMSO if necessary. Latex gloves, lab coats and masks are used during all phases of the handling process to prevent exposure to potentially harmful agents. The drug is prepared at the appropriate concentration and stored at −20° C. until used by the screening laboratory. The first dilution of each compound is made in a dilution tube with medium to yield a concentration two-fold that of the highest test concentration. Sterile titer tubes are then used to make serial one half-log dilutions of each compound. Following drug dilution, the diluted compound is added to the appropriate well of a 96-well microtiter plate. Up to 12 dilutions can be assayed conveniently in triplicate on a single plate with all appropriate controls including cell control, virus control, toxicity control, drug color control, medium control and plastic (background) control. When testing includes only six dilutions, two drugs can be assayed on a single microtiter plate. The drugs are added to the plate in a final volume of 100 microliters.
(§6) During the time the drug dilutions are prepared, cells are washed and counted. Viability is monitored by trypan blue dye exclusion and assays are not performed if the viability falls below 90%. Cells are maintained in an exponential growth phase and are split 1:2 on the day prior to assay to assure exponential growth rate.
(§7) For the primary screen, the cell lines utilized are CEM and MT-2. Unless otherwise indicated, the medium used is RPMI 1640 with 10% heat-inactivated fetal calf serum (FBS), glutamine and antibiotics.
(§8) Cells are propagated at 37° C. in an atmosphere of 5% CO2 in air. The virus employed for this work is HIV-1 isolates IIIB and/or RF, which are prepared by an acute infection process.
(§9) Briefly, virus-infected cells are pelleted on a daily basis beginning at three days post-infection until the virus has killed all of the cells in the culture. Reverse transcriptase activity and p24 ELISA are used to identify pools with the greatest amout of virus.
(§10) These 24-hour harvests are pooled, filtered and frozen at −90° C. Prior to use in the assay, the infectious pool of virus is titered on all available cell lines in order to determine the amount of virus required in the antiviral assay.
(§11) In general, pools produced by the acute infection method require the addition of one microliter of infectious virus per well resulting in the screening of drugs at a multiplicity of infection of 0.01. In this manner, enough virus is prepared and frozen to complete over one thousand microtiter plates, allowing the testing of up to two thousand compounds from a single stock of infectious virus.
Virus infection of the CEM and MT-2 cells for the antiviral assay is carried out in a bulk infection process.

[2] = tested on: HIV-1 isolates IIIB and/or RF in MT-2 cells; assay: SRI primary anti-HIV screen, MTT assay of inhibition of HIV-induced cell killing in MT2 cells; format: cell-based; conditions: MT2 cells
Excerpt: I. Primary Drug Screening of Anti-HIV Compounds at Southern Research Institute (SRI) (Results recorded in Table 1 are designated “SRI CEM (ng/ml)” or “SRI MT2 (ng/ml)”)
as §1
SRI has an established program for the primary antiviral analysis of compounds in microtiter assays which measures the ability of a selected compound to inhibit HIV-induced cell killing. This assay involves the conversion of the tetrazolium dye MTT to a colored formazan product by mitochondrial enzymes in metabolically active cells. This assay system is used at SRI to screen over 30,000 compounds per year. Briefly, the assay involves the infection of CEM or MT2 cells in round bottom 96-well plates. The compound of interest is added just prior to infection. Following 6 days of incubation at 37° C. the plates are stained with MTT. The results of the assay are quantitated spectrophotometrically on a Molecular Devices Vmax plate reader. The data are analyzed by linear regression utilizing an in-house software program to calculate antiviral activity (IC25, IC50, IC95) and toxicity (TC25, TC50, TC95) as well as other values.
as §2, §3, §4
as §5, with “Up to 12 dilutions can be assayed conveniently in triplicate on a single plate with all appropriate controls including cell control, virus control, toxicity control, drug color control, medium control and plastic (background) control.” left out
as §6, §7, §8, §9, §10
as §11, with “virus. The use of a single stock of virus for a long period of testing has very favorable effects on the repeatability of the assay systems. […]” for “virus.”

[3] = tested on: Viral SN123 infected CEM cells; conditions: Human immunodeficiency virus 1, CCRF-CEM, values in parentheses are 35B in same assay
Method: Purpose: To determine IC50 CC50 for compounds:
Media A [1% DMSO] (100 microliters DMSO+9.9 ml media A)
CEM cells @ [1×10^4] cells/ml (4 plate=40 ml) (6 plate=60 ml)
(need 70 microliters of each)
A-D at [10 mM] in 100% DMSO
4 or 6 u-bottom 96-well plates
4 flat bottom 96-well plates for dilutions
8-10 boxes of sterile costar tips
Approximately 10 reagent trays
1000 cells/well=1×10^4 cells/ml=1000 cells/100 microliters 200 microliters=total volume in a well
Cell Preparation and Plating of Cells, Media A and Media A (1% DMSO)
a. Number a 96-well tissue culture plate for each compound tested, one for a control plate, and one for the control compound.
b. Count cells on hemacytometer and resuspend them in 40 ml or 80 ml of Media A at a concentration of [1×10^4]0 cells/ml.
Counting Cells on a Hemacytomer:
Label two 1.8 ml nuc tubes 1 and 2.
Put 0.5 ml of well mixed CEM cells (in growth phase) in tube 1.
Put 50 micoliters PBS and 40 microliters of trypan blue into tube 2.
Mix up the cells in tube 1 then remove 10 microliters of cells and put them into tube 2.
Mix well in tube 2, then remove 10 microliters of the stained cells and put them on the hemacytometer.
Count the number of cells in the center square of the hemacytometer with the microscope set on 10×.
The concentration of the stock CEM's in cells/ml is as follows:
Cells counted×1×10^5=Concentration of CEM's in [cells/ml].
c. Add 200 microliters Media A to: A1 of places 2-6. These are Blanks. A4-H4 of plate 1. These are Blanks.
d. Add 5 microlicers Media A to all wells of Rows A-D of plates 2-6 except A1 (the top half of each plate).
e. Add 50 microliters of Media A to wells A1-D3 of Plate 1 (the top half of the plate).
f. Add 50 microliters Media A[l% DMSO] to all wells of Columns 1-3 of plate 1.
This puts 1000 cells/well.
h. Put plates in an incubator while doing drug dilutions.
Preparation Control and Test Drugs
(1) Put 60 microliters of DMSO into all wells of Columns 2-12, Rows A-E.
(3) Put 70 microliters of A [10 mM] at 100% DMSO into well B1.
(4) Put 70 microliters of B [10 mM] at 100% DMSO into well C1.
(5) Put 70 microliters of C [10 mM] at 100% DMSO into well D1.
(6) Put 70 microliters of D [10 mM] at 100% DMSO into well E1.
Change tips before each dilution.
(1) In rows A-E of another plate make a row for the first 1:10 dilution to correspond to each compound's 100% DMSO row.
A into Row B for the first 1:10 dilution.
B into Row C for the first 1:10 dilution.
C into Row D for the first 1:10 dilution.
D into Row E for the first 1:10 dilution.
(2) Put 180 microliters of media A into all wells of rows A-E corresponding to the 100% DMSO rows. 2.5 ml needed per row.
(3) Remove 20 microliters from all wells of each row of the 100% DMSO rows and transfer it to the corresponding 1:10 row.
(1) Make a plate for every 3 compounds to be tested.
Use 20 ml of media A per plate.
(3) Transfer 25 microliters of each compound from the row in the 1:10 dilution to the corresponding two rows on the 1:100 dilution plate changing tips before each transfer.
Addition of Viral SN123 to Plates
a. Thaw Sn123 in 37° C. water bath for approximately 10 minutes.
b. Dilute Sn123 1:16 by adding 1 ml of Sn123 to 15 ml of media A.
c. Add 50 microliters of Sn123 [1:16] to wells E1-H12 of plates 2-6 and to wells E1-H3 of plate 1.
Addition of Drugs to Plates
a. Add 50 microliters of the control and test drugs from the rows in the 1:100 dilution plates to the appropriate rows in the final plates (changing tips before each transfer). One row in the 1:100 plate will do 4 rows in the final plate. Leave A1 blank.
b. Incubate all plates 7 days at 37° C. 5% CO2.
c. Do Xtt protocol on day 7 as follows:
d. Preparation of Xtt/PMS Solution: (4 plate=20 ml) (6 plate=30 ml)
100 microliters [100 mM] PMS+4.9 ml PBS=PMS at [2 mM]
(2) Heat 500 ml of H2O in microwave for 5 minutes on high.
(3) Put 20 or 30 ml of phenol red RPMI in a 50 ml centrifuge tube.
(4) Put the RPMI in the beaker of hot water.
(5) Add 20 or 30 mg of XTT to the warmed up RPMI.

[4] = normalized to positive control (=1.0), * = a calculated average, read-out: Fluorescence Assay IC50 in ng/mL (converted)
[5] = value as run, 35B value of the same run in footnote or parentheses, read-out: Pandex IC50 ng/ml (converted)
[6] = normalized to positive control (=1.0), * = a calculated average
[7] = value as run, 35B value of the same run in footnote or parentheses

| Compound | melting point [°C] | IC50 (HIV-1 protease; [4]) [nM] | further results |
| --- | --- | --- | --- |
| CC(C)(C)NC(=O)c1ccccc1CC(O)C(CSc1ccc2ccccc2c1)NC(=O)c1cc(N)ccc1Cl (stereo not drawn) [Example 55, [2′R-(2′R*,3′S*)]-N-t-Butyl-2-[2′-hydroxy-3′-naphth-2-ylthiomethyl-4′-aza-5′-oxo-5′-(2″-chloro-5″-aminophenyl)pentyl] benzamide] | 109 to 110 | 194 | – |
| CC(C)(C)NC(=O)c1ccccc1C[C@@H](O)[C@@H](CSc1ccc2ccccc2c1)NC(=O)c1cccc(N)c1Cl [Example 44, [2′R-(2′R*,3′S*)]-N-t-Butyl-2-[2′-hydroxy-3′-naphth-2-ylthiomethyl-4′-aza-5′-oxo-5′-(2″-chloro-3″-aminophenyl)pentyl] benzamide] | 107 to 108 | 121 | – |
| CC(C)(C)NC(=O)c1c(CC(O)C(CSc2ccc3ccccc3c2)NC(=O)c2cccc(N)c2Cl)ccc2ccccc12 (stereo not drawn) [Example 49, [2′R-(2′R*,3′S*)]-N-t-Butyl-2-[2′-hydroxy-3′-naphth-2-ylthiomethyl-4′-aza-5′-oxo-5′-(2″-chloro-3″-aminophenyl)pentyl]-1-naphthylamide] | 110 to 112 | 137 | – |
| CC(C)(C)NC(=O)c1ccccc1CC(O)C(CSc1ccc2ccccc2c1)NC(=O)c1ccc(N)cc1Cl (stereo not drawn) [Example 71, [2′R-(2′R*,3′S*)]-N-t-Butyl-2-[2′-hydroxy-3′-naphth-2-ylthiomethyl-4′-aza-5′-oxo-5′-(2″-chloro-4″-aminophenyl)pentyl] benzamide] | 102 to 104 | 312 | – |
| Cc1c(N)cccc1C(=O)NC(CSc1ccc2ccccc2c1)C(O)Cc1ccccc1C(=O)NC(C)(C)C (stereo not drawn) [Example 42, [2′R-(2′R*,3′S*)]-N-t-Butyl-2-[2′-hydroxy-3′-naphth-2-ylthiomethyl-4′-aza-5′-oxo-5′-(2″-methyl-3″-aminophenyl)pentyl] benzamide] | 105 to 106 | 191 | – |
| CC(C)(C)NC(=O)c1ccccc1CC(O)C(CSc1ccc2ccccc2c1)NC(=O)c1ccc(N)c(O)c1 (stereo not drawn) [Example 73, [2′R-(2′R*,3′S*)]-N-t-Butyl-2-[2′-hydroxy-3′-naphth-2-ylthiomethyl-4′-aza-5′-oxo-5′-(3″-hydroxy-4″-aminophenyl)pentyl] benzamide] | 119 to 122 | 3480 | – |
| CC(C)(C)NC(=O)c1ccccc1C[C@@H](O)[C@@H](CSc1ccc2ccccc2c1)NC(=O)c1cccc2c1CCN2 [Example 65, [2′R-(2′R*,3′S*)]-N-t-Butyl-2-[2′-hydroxy-3′-naphth-2-ylthiomethyl-4′-aza-5′-oxo-5′-(indolin-4″-yl)pentyl] benzamide] | 83 to 84 | 687 | – |
| CC(C)(C)NC(=O)c1ccccc1C[C@@H](O)[C@@H](CSc1ccc2ccccc2c1)NC(=O)c1cccc2ccccc12 [Example 61, [2′R-(2′R*,3′S*)]-N-t-Butyl-2-[2′-hydroxy-3′-naphth-2-ylthiomethyl-4′-aza-5′-oxo-5′-(naphth-1″-yl)pentyl] benzamide] | 92 to 95 | 2770 | – |
| CC(C)(C)NC(=O)[C@@H]1C[C@@H]2SCC[C@@H]2CN1C[C@@H](O)[C@H](CSc1ccccc1)NC(=O)C1CCS(=O)(=O)C1 (relative stereo) [Example 89, [6S-(6R*, 3aS*, 7aR*, 2′S*, 3′S*)]-2-[2′-Hydroxy-3′-phenylthiomethyl-4′-aza-5′-oxo-5′-(tetrahydrothieno-3″-yl-1″,1″-dioxide)pentyl]-octahydrothieno[3,2-c]pyridine-6-N-t-butyl carboxamide] | – | – | IC50 (HIV-1 protease; [5]): 0.856 nM; CEM IC95 [1]: 98 nM |
| CC(C)(C)NC(=O)c1ccccc1C[C@@H](O)[C@@H](CSc1ccc2ccccc2c1)NC(=O)c1cccc2[nH]ccc12 [Example 62, [2′R-(2′R*,3′S*)]-N-t-Butyl-2-[2′-hydroxy-3′-naphth-2-ylthiomethyl-4′-aza-5′-oxo-5′-(indol-4″-yl)pentyl] benzamide] | 109 to 110 | 350 | – |
| Cc1cnccc1C(=O)NC(CSc1ccccc1)C(O)CN1CCN(Cc2cccnc2)CC1C(=O)NC(C)(C)C (stereo not drawn) [Example 35, [2S-(2R*,2′S*,3′S*)]-1-[2′-Hydroxy-3′-phenylthiomethyl-4′-aza-5′-oxo-5′-(3″-methyl-pyrid-4″-yl)[pentyl]-4-(pyrid-3′″-ylmethyl)piperazine-2-N-t-butylcarboxamide] | – | – | SRI MT2 IC50 [2]: 0.519 µg/mL and 0.368 µg/mL; Fluorescence Assay IC50 (HIV-1 protease; [6]): 0.0317 µg/mL; Pandex IC50 ng/ml (HIV-1 protease; [7]): 73^c ng/ml |
| Cc1c(OP(=O)(O)O)cccc1C(=O)N[C@@H](Cc1ccccc1)[C@H](O)CN1C[C@H]2CCCC[C@H]2C[C@H]1C(=O)NC(C)(C)C (relative stereo) [Example 78, [3S-(3R*, 4aR*, 8aR*, 2′S*, 3′R*)]-2-[2′-Hydroxy-3′-phenylmethyl-4′-aza-5′-oxo-5′-(2″-methyl-3″-Hydroxyphenyl)pentyl]decahydroisoquinoline-3-N-t-butyl carboxamide 3″-dihydrogen phosphate] | – | – | SRI MT2 IC50 [2]: 0.08 µg/mL; IC50 ([3]; read-out: Whole cell IC50 nM, CEM cells): 8.64 nM; IC90 ([3]; read-out: Whole cell IC90 nM, CEM cells): 66.5 nM; IC50 (HIV-1 protease; [5]): 3240 nM |
| CC(C)(C)NC(=O)C1CC2CCCCC2CN1CC(O)C(Cc1ccccc1)NC(=O)c1cccc(Cl)c1Cl (stereo not drawn) [Example 14, [3S-(3R*,4aR*,8aR*,2′S*,3′R*)]-2-[2′-Hydroxy-3′-phenylmethyl-4′-aza-5′-oxo-5′-(2″,3″-dichloro-phenyl)pentyl] decahydroisoquinoline-3-N-t-butylcarboxamide] | – | – | SRI MT2 IC50 [2]: 1.61 µg/mL and 1.29 µg/mL; Fluorescence Assay IC50 (HIV-1 protease; [6]): 0.101 µg/mL; Pandex IC50 ng/ml (HIV-1 protease; [7]): 48.7^d ng/ml |
